“And” between values parts separate entries of the source, which are not always exact repeats. Identical values can stand only once.
Experiment: molar heat capacity at constant pressure
Conditions: 101.33 kPa, Small (less than 1 g) adiabatic calorimetry

N[C@@H](Cc1c[nH]c2ccccc12)C(=O)O [L-tryptophan]
molar heat capacity at constant pressure
Conditions | Crystal | Crystal 1
5 K | 0.6568 J/K/mol | –
7.14 K | 1.912 J/K/mol | –
7.31 K | 2.029 J/K/mol | –
7.49 K | 2.253 J/K/mol | –
7.66 K | 2.22 J/K/mol | –
7.83 K | 2.345 J/K/mol | –
8.01 K | 2.511 J/K/mol | –
8.17 K | 2.719 J/K/mol | –
8.33 K | 2.893 J/K/mol | –
8.49 K | 3.026 J/K/mol | –
8.64 K | 3.118 J/K/mol | –
8.8 K | 3.193 J/K/mol | –
8.95 K | 3.5 J/K/mol | –
9.1 K | 3.492 J/K/mol | –
9.25 K | 3.783 J/K/mol | –
9.39 K | 4.024 J/K/mol | –
9.54 K | 4.041 J/K/mol | –
9.69 K | 4.141 J/K/mol | –
9.83 K | 4.34 J/K/mol | –
9.98 K | 4.506 J/K/mol | –
10 K | 4.49 J/K/mol | –
10.17 K | 4.656 J/K/mol | –
10.41 K | 4.889 J/K/mol | –
10.66 K | 5.08 J/K/mol | –
10.9 K | 5.363 J/K/mol | –
11.14 K | 5.712 J/K/mol | –
11.39 K | 5.978 J/K/mol | –
11.63 K | 6.153 J/K/mol | –
11.88 K | 6.419 J/K/mol | –
12.12 K | 6.768 J/K/mol | –
12.37 K | 7.009 J/K/mol | –
12.62 K | 7.325 J/K/mol | –
12.87 K | 7.591 J/K/mol | –
13.12 K | 7.874 J/K/mol | –
13.37 K | 8.132 J/K/mol | –
13.62 K | 8.481 J/K/mol | –
13.87 K | 8.697 J/K/mol | –
14.12 K | 8.988 J/K/mol | –
14.37 K | 9.37 J/K/mol | –
14.63 K | 9.612 J/K/mol | –
14.89 K | 9.994 J/K/mol | –
15 K | 10.06 J/K/mol | –
15.14 K | 10.24 J/K/mol | –
15.4 K | 10.54 J/K/mol | –
15.65 K | 10.85 J/K/mol | –
15.91 K | 11.26 J/K/mol | –
16.17 K | 11.59 J/K/mol | –
16.42 K | 11.93 J/K/mol | –
16.68 K | 12.31 J/K/mol | –
16.94 K | 12.6 J/K/mol | –
17.2 K | 12.88 J/K/mol | –
17.46 K | 13.23 J/K/mol | –
17.72 K | 13.64 J/K/mol | –
17.98 K | 13.93 J/K/mol | –
18.24 K | 14.28 J/K/mol | –
18.5 K | 14.56 J/K/mol | –
18.77 K | 14.98 J/K/mol | –
19.04 K | 15.27 J/K/mol | –
19.3 K | 15.67 J/K/mol | –
19.56 K | 16.11 J/K/mol | –
19.82 K | 16.35 J/K/mol | –
20 K | 16.55 J/K/mol | –
20.09 K | 16.75 J/K/mol | –
20.64 K | 17.32 J/K/mol | –
21.4 K | 18.33 J/K/mol | –
22.16 K | 19.27 J/K/mol | –
22.93 K | 20.25 J/K/mol | –
23.7 K | 21.21 J/K/mol | –
24.47 K | 22.27 J/K/mol | –
25 K | 22.95 J/K/mol | –
25.24 K | 23.36 J/K/mol | –
26.01 K | 24.35 J/K/mol | –
26.79 K | 25.26 J/K/mol | –
27.56 K | 26.17 J/K/mol | –
28.34 K | 27.19 J/K/mol | –
29.12 K | 28.15 J/K/mol | –
29.9 K | 29.13 J/K/mol | –
30 K | 29.35 J/K/mol | –
30.69 K | 30.2 J/K/mol | –
31.47 K | 31.22 J/K/mol | –
32.25 K | 32.16 J/K/mol | –
33.04 K | 33.14 J/K/mol | –
33.83 K | 34.04 J/K/mol | –
34.62 K | 34.9 J/K/mol | –
35 K | 35.34 J/K/mol | –
35.41 K | 35.81 J/K/mol | –
36.19 K | 36.73 J/K/mol | –
36.98 K | 37.56 J/K/mol | –
37.77 K | 38.4 J/K/mol | –
38.56 K | 39.29 J/K/mol | –
39.36 K | 40.19 J/K/mol | –
40 K | 40.82 J/K/mol | –
40.15 K | 40.92 J/K/mol | –
40.94 K | 41.77 J/K/mol | –
41.73 K | 42.6 J/K/mol | –
42.53 K | 43.43 J/K/mol | –
43.32 K | 44.32 J/K/mol | –
44.11 K | 45.14 J/K/mol | –
44.91 K | 45.95 J/K/mol | –
45 K | 45.9 J/K/mol | –
45.71 K | 46.69 J/K/mol | –
46.51 K | 47.37 J/K/mol | –
47.31 K | 48.09 J/K/mol | –
48.11 K | 48.71 J/K/mol | –
48.9 K | 49.39 J/K/mol | –
49.7 K | 50.03 J/K/mol | –
50 K | 50.55 J/K/mol | –
50.5 K | 50.81 J/K/mol | –
51.3 K | 51.51 J/K/mol | –
52.1 K | 52.37 J/K/mol | –
52.9 K | 53.35 J/K/mol | –
53.7 K | 54.34 J/K/mol | –
54.5 K | 55.43 J/K/mol | –
55.3 K | 55.65 J/K/mol | –
56.1 K | 56.39 J/K/mol | –
56.9 K | 57.23 J/K/mol | –
57.7 K | 57.95 J/K/mol | –
58.51 K | 58.68 J/K/mol | –
59.31 K | 59.42 J/K/mol | –
60 K | 60.03 J/K/mol | –
60.12 K | 60.15 J/K/mol | –
60.92 K | 60.88 J/K/mol | –
61.73 K | 61.6 J/K/mol | –
62.52 K | 62.33 J/K/mol | –
63.32 K | 63.58 J/K/mol | –
64.13 K | 64.21 J/K/mol | –
64.93 K | 64.88 J/K/mol | –
65.73 K | 65.32 J/K/mol | –
66.54 K | 65.98 J/K/mol | –
67.34 K | 66.53 J/K/mol | –
68.15 K | 67.1 J/K/mol | –
68.95 K | 67.91 J/K/mol | –
69.75 K | 68.59 J/K/mol | –
70 K | 68.68 J/K/mol | –
70.56 K | 69.1 J/K/mol | –
71.35 K | 69.78 J/K/mol | –
72.16 K | 70.26 J/K/mol | –
72.96 K | 70.81 J/K/mol | –
73.76 K | 71.51 J/K/mol | –
74.56 K | 72.19 J/K/mol and 72.19 J/K/mol | –
75.36 K | 72.76 J/K/mol | –
76.16 K | 73.55 J/K/mol and 73.54 J/K/mol | –
76.96 K | 74.19 J/K/mol | –
77.76 K | 74.88 J/K/mol and 74.88 J/K/mol | –
77.81 K | 74.18 J/K/mol | –
77.91 K | 74.86 J/K/mol | –
77.92 K | 74.32 J/K/mol | –
78.27 K | 74.94 J/K/mol | –
78.42 K | 75.32 J/K/mol | –
78.45 K | 75.01 J/K/mol | –
78.56 K | 75.5 J/K/mol | –
78.82 K | 75.44 J/K/mol | –
78.84 K | 74.99 J/K/mol | –
78.87 K | 75.62 J/K/mol | –
79.2 K | 75.99 J/K/mol | 71.01 J/K/mol
79.22 K | 75.33 J/K/mol | –
79.24 K | 75.75 J/K/mol | –
79.33 K | 76.02 J/K/mol | –
79.36 K | 76.16 J/K/mol | –
79.37 K | 76.15 J/K/mol | –
79.62 K | – | 70.64 J/K/mol
79.64 K | – | 70.29 J/K/mol
79.68 K | – | 70.63 J/K/mol
80 K | – | 71.09 J/K/mol
80.02 K | – | 71.26 J/K/mol
80.04 K | – | 70.54 J/K/mol
80.14 K | – | 70.97 J/K/mol
80.17 K | – | 71.35 J/K/mol and 71.35 J/K/mol
80.19 K | – | 71.22 J/K/mol
80.41 K | – | 71.6 J/K/mol
80.43 K | – | 70.98 J/K/mol
80.48 K | – | 71.27 J/K/mol
80.81 K | – | 72.02 J/K/mol
80.83 K | – | 71.17 J/K/mol
80.94 K | – | 71.85 J/K/mol
80.98 K | – | 72.02 J/K/mol and 72.02 J/K/mol
80.99 K | – | 72 J/K/mol
81.21 K | – | 72.51 J/K/mol
81.23 K | – | 71.92 J/K/mol
81.28 K | – | 72.06 J/K/mol
81.61 K | – | 72.57 J/K/mol
81.63 K | – | 72.55 J/K/mol
81.74 K | – | 72.46 J/K/mol
81.79 K | – | 72.78 J/K/mol and 72.65 J/K/mol and 72.78 J/K/mol
82 K | – | 72.93 J/K/mol
82.02 K | – | 72.8 J/K/mol
82.08 K | – | 72.96 J/K/mol
82.42 K | – | 73.44 J/K/mol
82.55 K | – | 73.18 J/K/mol
82.59 K | – | 73.58 J/K/mol and 73.47 J/K/mol and 73.58 J/K/mol
82.82 K | – | 73.8 J/K/mol
82.88 K | – | 73.57 J/K/mol
83.22 K | – | 74.06 J/K/mol
83.35 K | – | 74 J/K/mol
83.4 K | – | 74.08 J/K/mol
83.68 K | – | 74.24 J/K/mol
84.15 K | – | 74.8 J/K/mol
84.2 K | – | 74.77 J/K/mol
84.49 K | – | 74.98 J/K/mol
84.95 K | – | 75.46 J/K/mol
85 K | – | 75.41 J/K/mol
85.29 K | – | 75.62 J/K/mol
85.8 K | – | 76.16 J/K/mol
86.6 K | – | 77.02 J/K/mol
87.4 K | – | 77.55 J/K/mol
88.21 K | – | 78.21 J/K/mol
89.01 K | – | 78.75 J/K/mol
89.81 K | – | 79.34 J/K/mol
90 K | – | 79.57 J/K/mol
90.61 K | – | 80.12 J/K/mol
91.41 K | – | 80.65 J/K/mol
92.22 K | – | 81.07 J/K/mol
93.02 K | – | 81.81 J/K/mol
93.82 K | – | 82.48 J/K/mol
94.62 K | – | 83.08 J/K/mol
95.43 K | – | 83.56 J/K/mol
96.23 K | – | 84.06 J/K/mol
97.03 K | – | 84.89 J/K/mol
97.83 K | – | 85.56 J/K/mol
98.64 K | – | 86.05 J/K/mol
99.44 K | – | 86.39 J/K/mol
100 K | – | 86.89 J/K/mol
100.24 K | – | 86.97 J/K/mol
101.04 K | – | 87.55 J/K/mol
101.84 K | – | 88.13 J/K/mol
102.65 K | – | 88.72 J/K/mol
103.45 K | – | 89.38 J/K/mol
104.25 K | – | 89.71 J/K/mol
105.05 K | – | 90.38 J/K/mol
105.85 K | – | 91.04 J/K/mol
106.65 K | – | 91.46 J/K/mol
107.45 K | – | 91.87 J/K/mol
108.25 K | – | 92.54 J/K/mol
109.05 K | – | 93.12 J/K/mol
109.85 K | – | 93.62 J/K/mol
110 K | – | 93.7 J/K/mol
110.66 K | – | 94.2 J/K/mol
111.46 K | – | 94.78 J/K/mol
112.26 K | – | 95.2 J/K/mol
113.06 K | – | 95.87 J/K/mol
113.86 K | – | 96.36 J/K/mol
114.66 K | – | 96.61 J/K/mol
115.47 K | – | 97.36 J/K/mol
116.27 K | – | 97.7 J/K/mol
117.07 K | – | 98.61 J/K/mol
117.87 K | – | 99.11 J/K/mol
118.67 K | – | 99.69 J/K/mol
119.47 K | – | 100.27 J/K/mol
120 K | – | 100.44 J/K/mol
120.28 K | – | 100.85 J/K/mol
121.08 K | – | 101.19 J/K/mol
121.88 K | – | 101.85 J/K/mol
122.68 K | – | 102.27 J/K/mol
123.49 K | – | 102.77 J/K/mol

Reference: the NIST ThermoML archive (doi:10.1016/j.jct.2016.09.041)
